Experimental data from US4015974A, “Amido phosphorothiolates” (priority 1972, dated 1977).

How the values were obtained:
Assay type in all cases: in vivo
nematode = assay: Effect on nematode (Table 7); parameters: tested at 500 ppm; details: 500 p.p.m., 24 hours
Method: 0.5 ml. of a nematode-containing aqueous solution separated from food according to Baermann's method was placed in a test tube with ground stopper containing 0.5 ml. of an aqueous dilute solution of each emulsifiable concentrates of the present compounds. The concentration of the active ingredient in the mixture was adjusted to 500 p.p.m. After 24 hours, the death and alive were observed microscopically to calculate the mortality.

[1] = tested on: barnyard grass (Echinochloa crus-galli); assay: Water application, herbicidal effect on barnyard grass (Table 2); parameters: key: 0: not damaged; 5: completely killed; details: 25 days, score 0-5
Procedure, shortened: (§1)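 Under water-lodged conditions, wettable-powder test compounds are applied to paddy soil carrying transplanted rice (3-leaf) and sown barnyard grass. Activity on these and on spontaneously emerged broad-leaved weeds is graded 0 to 5 twenty-five days later.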

[2] = tested on: large crabgrass (Digitaria sanguinalis); assay: Pre-emergence application, herbicidal effect on large crabgrass (Table 1); parameters: key: 0: not damaged; 5: completely killed; details: 20 days after application, score 0-5
Procedure, shortened: (§2)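 Pre-emergence soil application of wettable powders diluted in water over covered seeds (~10 cm pots). Greenhouse growth; visual 0–5 rating (0 none, 5 dead) at 20 days.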

[3] = tested on: common lambsquarter (Chenopodium album); assay: Pre-emergence application, herbicidal effect on common lambsquarter (Table 1); parameters: key: 0: not damaged; 5: completely killed; details: 20 days after application, score 0-5
Procedure, shortened: as §2

[4] = tested on: barnyard grass (Echinochloa crus-galli); assay: Pre-emergence application, herbicidal effect on barnyard grass (Table 1); parameters: key: 0: not damaged; 5: completely killed; details: 20 days after application, score 0-5
Procedure, shortened: as §2

[5] = tested on: broad-leaved weeds, e.g., monochoria, false pimpernel and toothcup; assay: Water application, herbicidal effect on broad-leaved weeds (Table 2); parameters: key: 0: not damaged; 5: completely killed; details: 25 days, score 0-5
Procedure, shortened: as §1

radish = assay: Pre-emergence application, herbicidal effect on radish (Table 1); parameters: key: 0: not damaged; 5: completely killed; details: 20 days after application, score 0-5
Procedure, shortened: as §2

[6] = tested on: redroot pigweed (Amaranthus retroflexus); assay: Pre-emergence application, herbicidal effect on redroot pigweed (Table 1); parameters: key: 0: not damaged; 5: completely killed; details: 20 days after application, score 0-5
Procedure, shortened: as §2

[7] = tested on: common purslane (Portulaca oleracea); assay: Pre-emergence application, herbicidal effect on common purslane (Table 1); parameters: key: 0: not damaged; 5: completely killed; details: 20 days after application, score 0-5
Procedure, shortened: as §2

rice = assay: Water application, phytotoxicity on rice (Table 2); parameters: key: 0: no effect; 1: very slightly affected; 2: slightly affected; 3: moderately affected; 4: considerably affected; 5: completely killed; details: 25 days, score 0-5
Procedure, shortened: as §1

SMILES | Mortality (nematode) | Herbicidal effects, barnyard grass ([1]; 10 g/a) | Herbicidal effects, barnyard grass ([1]; 20 g/a) | Herbicidal effects, barnyard grass ([1]; 40 g/a) | Herbicidal effect, large crabgrass ([2]; 10 g./a.) | Herbicidal effect, large crabgrass ([2]; 20 g./a.) | Herbicidal effect, large crabgrass ([2]; 40 g./a.) | Herbicidal effect, common lambsquarter ([3]; 10 g./a.) | Herbicidal effect, common lambsquarter ([3]; 20 g./a.) | Herbicidal effect, common lambsquarter ([3]; 40 g./a.) | Herbicidal effect, barnyard grass ([4]; 10 g./a.) | Herbicidal effect, barnyard grass ([4]; 20 g./a.) | Herbicidal effect, barnyard grass ([4]; 40 g./a.) | Herbicidal effects, broad-leaved weeds ([5]; 10 g/a) | Herbicidal effects, broad-leaved weeds ([5]; 20 g/a) | Herbicidal effects, broad-leaved weeds ([5]; 40 g/a) | Herbicidal effect, radish (radish; 10 g./a.) | Herbicidal effect, radish (radish; 20 g./a.) | Herbicidal effect, radish (radish; 40 g./a.) | Herbicidal effect, redroot pigweed ([6]; 10 g./a.) | also measured
CCOP(=O)(SCC(=O)N1CCCCC1CC)SCc1ccc(Br)cc1 (stereo not shown) [Compound 57] | 91.0% |  |  |  |  |  |  |  |  |  |  |  |  |  |  |  |  |  |  |  | 
CCOP(=O)(SCC(=O)N1CCCC(C)C1)SCC(C)C (stereo not shown) [Compound 28] | 100% |  |  |  |  |  |  |  |  |  |  |  |  |  |  |  |  |  |  |  | 
CCCSP(=O)(OCC)SCC(=O)N1CCC(C)CC1 (stereo not shown) [Compound 12] | 100% | 5 | 5 | 5 | 5 | 5 | 5 | 5 | 5 | 5 | 5 | 5 | 5 | 5 | 5 | 5 | 0 | 0 | 0 | 4 | Herbicidal effect, redroot pigweed ([6]; 20 g./a.): 5; Herbicidal effect, redroot pigweed ([6]; 40 g./a.): 5; Herbicidal effect, common purslane ([7]; 10 g./a.): 5; Herbicidal effect, common purslane ([7]; 20 g./a.): 5; Herbicidal effect, common purslane ([7]; 40 g./a.): 5; Phytotoxicity on rice (rice; 10 g/a): 0; Phytotoxicity on rice (rice; 20 g/a): 0; Phytotoxicity on rice (rice; 40 g/a): 0
CCOP(=O)(SCC(=O)N1CCCCC1C)SCc1ccc(C)cc1 (stereo not shown) [Compound 52] | 85.7% | 5 | 5 | 5 | 5 | 5 | 5 | 3 | 4 | 5 | 5 | 5 | 5 | 5 | 5 | 5 | 0 | 0 | 0 | 4 | Herbicidal effect, redroot pigweed ([6]; 20 g./a.): 4; Herbicidal effect, redroot pigweed ([6]; 40 g./a.): 5; Herbicidal effect, common purslane ([7]; 10 g./a.): 3; Herbicidal effect, common purslane ([7]; 20 g./a.): 4; Herbicidal effect, common purslane ([7]; 40 g./a.): 5; Phytotoxicity on rice (rice; 10 g/a): 0; Phytotoxicity on rice (rice; 20 g/a): 0; Phytotoxicity on rice (rice; 40 g/a): 0
CCOP(=O)(SCC)SCC(=O)N1CCC(C)CC1 (stereo not shown) [Compound 100] |  | 5 | 5 | 5 | 5 | 5 | 5 | 3 | 4 | 5 | 4 | 5 | 5 | 5 | 5 | 5 | 0 | 0 | 1 | 4 | Herbicidal effect, redroot pigweed ([6]; 20 g./a.): 4; Herbicidal effect, redroot pigweed ([6]; 40 g./a.): 5; Herbicidal effect, common purslane ([7]; 10 g./a.): 3; Herbicidal effect, common purslane ([7]; 20 g./a.): 4; Herbicidal effect, common purslane ([7]; 40 g./a.): 5; Phytotoxicity on rice (rice; 10 g/a): 0; Phytotoxicity on rice (rice; 20 g/a): 0; Phytotoxicity on rice (rice; 40 g/a): 0
